Results taken from patent US9695149B2, “1,2,6-substituted benzimidazoles as flap modulators” (JANSSEN PHARMACEUTICA NV, priority 2013, dated 2017).

Tests used:
human FLAP = human FLAP (Homo sapiens (Human), UniProt P20292); experiment: FLAP binding assay (HTRF format); details: human FLAP-containing Sf-9 membranes, wild type; average of runs
Description: (§1) The ability of the compounds of the present invention to treat a FLAP-mediated disease and/or disorder, or associated symptoms or complications thereof, was determined using the following procedures. Binding assay data represent the average value obtained from two different assay plates, with samples run in duplicate on each plate. Human whole blood assay data represent a single replicate on an assay plate using whole blood from at least one healthy donor.
The assay below is used to test the modulatory activity of compounds against FLAP. Human and mouse FLAP-encoding DNA was amplified by polymerase chain reaction and cloned into pFastBac1 (Invitrogen) with a NH2-terminal 6-His tag for expression in Spodoptera frugiperda (Sf-9) cells. FLAP-containing membranes were prepared as was a FITC-labeled FLAP modulator (3-(3-(tert-butylthio)-1-(4-chlorobenzyl)-5-(quinolin-2-ylmethoxy)-1H-indol-2-yl)-2,2-dimethylpropanoic acid). The FLAP binding assay is performed in HTRF format (homogeneous time resolved fluorescence). […] The reaction is allowed to proceed for two hours after which the plate is read on an Envision plate reader in HTRF mode. Data are expressed as a HTRF ratio.
For human FLAP binding assays, data are analyzed with 3DX Explorer software. […] For analysis, data from multiple runs are averaged and each compound may be tested in 2 to 20 runs. Each run comprises two plates and each plate includes duplicates. Data from each plate is averaged and data are imported into 3DX. The data from multiple runs are aggregated as the average of duplicates of the calculated ratios in order to calculate Ki and IC50 values. Numbers in parentheses are the number of runs for the assay.

[1] = test system: leukotriene pathway in human whole blood; experiment: Human whole blood assay (LTB4, A23187-stimulated); format: cell-based; details: Homo sapiens, 0.5 h, human whole blood diluted 1:1 in RPMI, calcium ionophore A23187 7 μg/mL, 30 min
Description: as §1
An in vitro cellular assay was performed using human whole blood collected in heparin-containing tubes, which was used to test the ability of compounds to modulate the leukotriene pathway in human whole blood. The blood was diluted 1:1 in RPMI medium, pre-incubated for 15 min at 37° Celsius with test compounds at various concentrations, and then stimulated with calcium ionophore, A23187 (7 μg/mL), for 30 min at 37° Celsius. The samples were then centrifuged and plasma was removed. The plasma was diluted in assay buffer and LTB4 levels were measured using a commercial kit (Enzo Life Sciences). The concentration of each compound that was required for half-maximal inhibition (modulation) of […] (IC50) was calculated by a 4-parameter equation using the program GraphPad Prism (GraphPad software). For analysis, data are imported into 3DX and aggregated as the average of duplicates of the calculated ratios in order to calculate Ki and IC50 values. Numbers in parentheses are the number of runs for the assay.

Sequence of human FLAP (P20292 whole entry): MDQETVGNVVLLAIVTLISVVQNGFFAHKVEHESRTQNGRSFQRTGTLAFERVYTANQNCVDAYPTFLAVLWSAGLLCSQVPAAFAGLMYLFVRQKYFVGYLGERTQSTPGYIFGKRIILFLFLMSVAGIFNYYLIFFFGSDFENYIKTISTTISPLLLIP

Ki (human FLAP): 0.0038 µM
IC50 [1]: 0.15 µM
Compound: Cc1ccc(COc2ccc3nc(C4CCCC[C@H]4C(=O)O)n(Cc4cc(N5CCCCC5)ccc4F)c3c2)nc1 (mixture of isomers) [Example 209, racemic cis-2-{1-(2-Fluoro-5-piperidin-1-ylbenzyl)-6-[(5-methylpyridin-2-yl)methoxy]-1H-benzimidazol-2-yl}cyclohexanecarboxylic acid]
